Here are results for nine molecules from ChEMBL document CHEMBL4622870, “Design, synthesis and evaluation of hydrazine and acyl hydrazone derivatives of 5-pyrrolidin-2-one as antifungal agents” (Bioorg Med Chem Lett, 2020).

As usually defined, the MIC50 is the lowest concentration that inhibits either 50% of growth or 50% of the strains tested, depending on the study.

Data set [1] relates to Alternaria alternata. Kind of data set: Antifungal activity against Alternaria alternata assessed as fungal growth inhibition at 100 ug/ml by micro-dilution method relative to control. The note with it: read-out: GI. It is filed as functional. (Dilution methods test growth across graded concentrations, often in twofold steps.)
The subject of data set [2] is Candida tropicalis. Kind of data set: Antifungal activity against Candida tropicalis assessed as fungal growth inhibition by micro-dilution method. In kind it is functional.
The subject of data set [3] is Aspergillus oryzae. Kind of data set: Antifungal activity against Aspergillus oryzae assessed as fungal growth inhibition at 100 ug/ml by micro-dilution method relative to control. It is filed as functional. The note with it: read-out: GI.
In data set [4] the test system is Geotrichum candidum. Nature of the data set: Antifungal activity against Geotrichum candidum assessed as fungal growth inhibition at 100 ug/ml by micro-dilution method relative to control. It is filed as functional. The note with it: read-out: GI.
In data set [5] the test system is Paecilomyces variotii. Kind of data set: Antifungal activity against Paecilomyces variotii assessed as fungal growth inhibition at 100 ug/ml by micro-dilution method relative to control. In kind it is functional. The note with it: read-out: GI.
Data set [6] relates to Alternaria alternata. Nature of the data set: Antifungal activity against Alternaria alternata assessed as fungal growth inhibition by micro-dilution method. It is filed as functional.
The subject of data set [7] is Paecilomyces variotii. Nature of the data set: Antifungal activity against Paecilomyces variotii assessed as fungal growth inhibition by micro-dilution method. It is filed as functional.
For data set [8], the system named is Botrytis cinerea. Nature of the data set: Antifungal activity against Botrytis cinerea assessed as fungal growth inhibition at 100 ug/ml by micro-dilution method relative to control. The conditions noted are these: read-out: GI. It is filed as functional.
Data set [9] has as its system Sclerotinia sclerotiorum. Kind of data set: Antifungal activity against Sclerotinia sclerotiorum assessed as fungal growth inhibition at 100 ug/ml by micro-dilution method relative to control. In kind it is functional. The conditions noted are these: read-out: GI.
Data set [10] concerns Kluyveromyces marxianus. Nature of the data set: Antifungal activity against Candida pseudotropicalis assessed as fungal growth inhibition by micro-dilution method. In kind it is functional.
For data set [11], the system named is Pichia kudriavzevii. Nature of the data set: Antifungal activity against Candida krusei assessed as fungal growth inhibition at 100 ug/ml by micro-dilution method relative to control. The conditions noted are these: read-out: GI. In kind it is functional.
Data set [12] has as its system Candida tropicalis. Nature of the data set: Antifungal activity against Candida tropicalis assessed as fungal growth inhibition at 100 ug/ml by micro-dilution method relative to control. It is filed as functional. The conditions noted are these: read-out: GI.
For data set [13], the system named is Aspergillus oryzae. Kind of data set: Antifungal activity against Aspergillus oryzae assessed as fungal growth inhibition by micro-dilution method. In kind it is functional.
Data set [14] concerns Penicillium ochrochloron. Kind of data set: Antifungal activity against Penicillium ochrochloron assessed as fungal growth inhibition at 100 ug/ml by micro-dilution method relative to control. The conditions noted are these: read-out: GI. In kind it is functional.
In data set [15] the test system is Kluyveromyces marxianus. Kind of data set: Antifungal activity against Candida pseudotropicalis assessed as fungal growth inhibition at 100 ug/ml by micro-dilution method relative to control. The note with it: read-out: GI. It is filed as functional.
The test system of data set [16] is Penicillium ochrochloron. Nature of the data set: Antifungal activity against Penicillium ochrochloron assessed as fungal growth inhibition by micro-dilution method. In kind it is functional.
Data set [17] deals with Sclerotinia sclerotiorum. Kind of data set: Antifungal activity against Sclerotinia sclerotiorum assessed as fungal growth inhibition by micro-dilution method. In kind it is functional.
For data set [18], the system named is Cladosporium cladosporioides. Kind of data set: Antifungal activity against Cladosporium cladosporioides assessed as fungal growth inhibition at 100 ug/ml by micro-dilution method relative to control. In kind it is functional. The note with it: read-out: GI.
In data set [19] the test system is Fusarium solani. Nature of the data set: Antifungal activity against Fusarium solani assessed as fungal growth inhibition by micro-dilution method. It is filed as functional.
Data set [20] has as its system Fusarium solani. Kind of data set: Antifungal activity against Fusarium solani assessed as fungal growth inhibition at 100 ug/ml by micro-dilution method relative to control. In kind it is functional. The note with it: read-out: GI.
Data set [21] relates to HEK293. Nature of the data set: Cytotoxicity against human HEK293 cells assessed as effect on cell viability measured after 72 hrs by MTS assay. It is filed as cell-based. The note with it: hek293, 72 h.
For data set [22], the system named is Cladosporium cladosporioides. Kind of data set: Antifungal activity against Cladosporium cladosporioides assessed as fungal growth inhibition by micro-dilution method. It is filed as functional.
Data set [23] has as its system Geotrichum candidum. Kind of data set: Antifungal activity against Geotrichum candidum assessed as fungal growth inhibition by micro-dilution method. In kind it is functional.
Data set [24] has as its system Geotrichum candidum. Nature of the data set: Antifungal activity against Geotrichum candidum assessed as fungal growth inhibition at 50 ug/ml by micro-dilution method relative to control. It is filed as functional. The conditions noted are these: read-out: GI.

For `O=C1CCC(NNc2ccccc2)N1` (racemic), the inhibition of growth at 100 µg/mL in [1] was 82%; in data set [3], 71%; in [4], 0%; in data set [5], 78%; in [8], 62%; in data set [9], 76%. Besides, the inhibition of growth at 100 µg/mL amounted to 35% in data set [11]; 89% in data set [12]; 90% in data set [14]; 96% in [15]; 44% in [18]; 100% in data set [20]. Also, the MIC50 was found to be 58.5 µg/mL in data set [2]; 3.6 µg/mL in data set [6]; 7.8 µg/mL in data set [7]; 0.6 µg/mL in data set [10]; 43.4 µg/mL in data set [13]; 4.4 µg/mL in data set [16]. Also, the MIC50 was 23 µg/mL in [17] and 18.5 µg/mL in data set [19]. In addition, the Activity entry in data set [21] was “Non-Toxic”.

Regarding `Cc1cc(O)no1` [HYMEXAZOL], the MIC50 in data set [6] was 38.3 µg/mL; in data set [7], 57.2 µg/mL; in data set [22] it was 28.9 µg/mL; in data set [13], 45.7 µg/mL; in data set [16], 62.2 µg/mL; in data set [17] it was 26.5 µg/mL. The MIC50 in data set [23] was > 50 µg/mL; in data set [19], 15.6 µg/mL.

With `O=C1CC[C@@H](C(=O)N/N=C/c2ccccc2)N1`, the inhibition of growth at 100 µg/mL was found to be 20% in data set [1]; 0% in data set [3]; 83% in [4]; 46% in data set [5]; 0% in data set [8]; 0% in data set [9]. Moreover, the inhibition of growth at 100 µg/mL in [11] came to 40%; in [12], 15%; in data set [14], 25%; in data set [15] it was 7%; in [18], 12%; in [20], 59%. For the same molecule, the MIC50 in data set [23] was > 75 µg/mL. Also, in data set [24], the inhibition of growth at 50 µg/mL is < 10%. Also, the Activity entry in [21] was “Non-Toxic”.

Take `O=C1CCC(NNc2ccc(C(F)(F)F)cc2)N1` (racemic): the inhibition of growth at 100 µg/mL in data set [1] is 2%; in data set [3], 37%; in data set [4], 22%; in data set [5], 82%; in data set [8], 39%; in data set [9], 40%. Further, the inhibition of growth at 100 µg/mL came to 51% in data set [11]; 51% in [12]; 35% in data set [14]; 38% in [15]; 81% in data set [18]; 100% in data set [20]. The MIC50 was found to be 2 µg/mL in data set [7], 3.4 µg/mL in data set [22] and 11.7 µg/mL in data set [19]. The Activity entry in data set [21] is “Non-Toxic”.

Consider `O=C1CCC(NNc2cc(F)ccc2F)N1` (racemic), for which the inhibition of growth at 100 µg/mL was 72% in data set [1]; 0% in [3]; 25% in data set [4]; 17% in data set [5]; 0% in data set [8]; 28% in [9]. Further, the inhibition of growth at 100 µg/mL is 20% in data set [11]; 62% in data set [12]; 73% in [14]; 65% in data set [15]; 29% in data set [18]; 95% in data set [20]. Moreover, the MIC50 in [6] was found to be 18.6 µg/mL; in data set [16], 21.1 µg/mL; in data set [19], 24.5 µg/mL. Besides, in data set [21], the Activity entry is “Non-Toxic”.

As for `O=C1CC[C@@H](C(=O)N/N=C/c2ccc(Br)cc2)N1`, the inhibition of growth at 100 µg/mL in data set [1] was found to be 0%; in [3], 43%; in [4] it was 100%; in data set [5] it was 0%; in data set [8], 40%; in [9] it was 37%. Also, the inhibition of growth at 100 µg/mL in [11] stood at 0%; in data set [12] it was 92%; in data set [14], 77%; in data set [15], 2%; in data set [18], 72%; in data set [20], 100%. Moreover, the MIC50 in data set [2] is > 75 µg/mL; in data set [22], 53 µg/mL; in data set [16] it was 5.3 µg/mL; in data set [23], 5.9 µg/mL; in data set [19] it was 6.5 µg/mL. In addition, in data set [21], the Activity entry was “Non-Toxic”.

With `O=C1CC[C@@H](C(=O)N/N=C/c2ccc(Cl)cc2)N1`, the inhibition of growth at 100 µg/mL in [1] was found to be 20%; in data set [3], 0%; in [4], 92%; in data set [5], 27%; in [8], 34%; in data set [9], 58%. The inhibition of growth at 100 µg/mL in [11] came out at 26%; in data set [12], 47%; in data set [14] it was 92%; in data set [15] it was 50%; in data set [18], 98%; in [20] it was 61%. Further, the MIC50 was 23.9 µg/mL in data set [22], 15.4 µg/mL in data set [16] and 1.8 µg/mL in data set [23]. Besides, the Activity result in data set [21] is recorded as “Non-Toxic”.

Regarding `O=C1CC[C@@H](C(=O)N/N=C/c2ccc(CO)o2)N1`, the inhibition of growth at 100 µg/mL in data set [1] was 42%; in [3], 0%; in data set [4], 88%; in [5] it was 45%; in data set [8] it was 0%; in data set [9], 0%. In addition, the inhibition of growth at 100 µg/mL in [11] was 66%; in data set [12], 38%; in data set [14], 28%; in data set [15] it was 28%; in data set [18], 0%; in [20], 72%. Also, the MIC50 in data set [23] and in [19] was > 75 µg/mL in each case. In addition, the inhibition of growth at 50 µg/mL in data set [24] was < 10%. Moreover, the Activity entry in data set [21] is given as “Non-Toxic”.

For the molecule `CC(=O)N1CCN(c2ccc(OCC3COC(Cn4ccnc4)(c4ccc(Cl)cc4Cl)O3)cc2)CC1` (centres undefined) [KETOCONAZOLE], the figures for the MIC50 in [2], in data set [10] and in [23] were 15.9 µg/mL, 9.6 µg/mL and 1.5 µg/mL, respectively.
